Target: T1, Secreted chorismate mutase (Mycobacterium tuberculosis, UniProt P9WIB9)
T1 sequence (P9WIB9 whole entry): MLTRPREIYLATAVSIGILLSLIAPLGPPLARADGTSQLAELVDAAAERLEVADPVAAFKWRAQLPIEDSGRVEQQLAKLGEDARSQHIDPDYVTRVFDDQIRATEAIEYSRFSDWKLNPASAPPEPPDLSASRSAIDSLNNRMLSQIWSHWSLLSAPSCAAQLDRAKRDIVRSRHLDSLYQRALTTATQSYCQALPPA
Test: Inhibition of chorismate mutase in Mycobacterium tuberculosis H37Rv strain

SMILES | Ki
COc1cc(/C=C(\C(=O)O)c2ccc(Cl)cc2)c([N+](=O)[O-])cc1OC | 17.7 µM
COc1ccc(CCNc2c([N+](=O)[O-])cc(C(=O)O)cc2S(N)(=O)=O)cc1OC | 5.7 µM
CNc1ccc(C(=O)OC)cc1[N+](=O)[O-] | 28.8 µM
CC(C)CC(NC(=O)C1CSC(c2ccccc2)N1C(=O)OC(C)(C)C)C(=O)O (centres undefined) | 21.1 µM
